Data: patent publication US20260355196A1, “INHIBITORS AND DEGRADERS OF PIP4K PROTEIN” (Larkspur Biosciences, Inc., priority 2023, published 2026)

Target: T1, PIP4K2C (Homo sapiens, UniProt Q8TBX8)
T1 sequence (Q8TBX8 1-421): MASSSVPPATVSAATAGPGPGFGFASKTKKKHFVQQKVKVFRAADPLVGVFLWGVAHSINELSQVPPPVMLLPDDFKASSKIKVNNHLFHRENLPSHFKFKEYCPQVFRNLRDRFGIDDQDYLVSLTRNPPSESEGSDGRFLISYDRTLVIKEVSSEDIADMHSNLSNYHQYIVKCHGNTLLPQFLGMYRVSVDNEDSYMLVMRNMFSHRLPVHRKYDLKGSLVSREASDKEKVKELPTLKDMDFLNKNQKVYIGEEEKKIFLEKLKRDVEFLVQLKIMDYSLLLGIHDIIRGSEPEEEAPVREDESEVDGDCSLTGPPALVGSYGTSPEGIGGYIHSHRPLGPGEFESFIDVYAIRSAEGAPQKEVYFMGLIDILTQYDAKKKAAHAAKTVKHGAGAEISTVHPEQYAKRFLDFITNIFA
Test: HiBiT PIP4K2C degradation assay in MOLT-4 cells (endogenous PIP4K2C C-terminally tagged with HiBiT)
Format: cell-based
Set-up: untagged in primary human PBMCs and monocyte-derived dendritic cells
Conditions: 6 hours of incubation time, rather than 24 hours; MOLT-4, top concentration 10 micromolar; read-out: HiBIT-degradation MOLT4 PIP4k2C DC50 (6 hours, marked *)
Method in brief: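 Luminescent HiBiT lytic readout of residual PIP4K2C-HiBiT (CRISPR knock-in, MOLT-4, phenol red-free RPMI-1640 + 10% FBS). Cells exposed 6 or 24 h at 37 C to compound, top 10 micromolar, 3-fold, 10 points, duplicate. Hill fit (Levenberg-Marquardt) gives DC50.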

Row | SMILES | DC50 [nM]
1 | O=C1CC[C@@H](Nc2ccc(C3CCN([C@H]4CC[C@H](NC(=O)[C@H]5CC[C@H](Nc6ncc(F)c(-c7cccc(-c8ccc[nH]c8=O)c7)n6)CC5)CC4)CC3)c(F)c2)C(=O)N1 (single isomer, unassigned) [Compound 419] | < 500
2 | O=C1CC[C@@H](Nc2ccc(N3CCN([C@H]4CC[C@H](NC(=O)[C@H]5CC[C@H](Nc6ncc(F)c(-c7cccc(-n8ccccc8=O)c7)n6)CC5)CC4)CC3)c(F)c2)C(=O)N1 (single isomer, unassigned) [Compound 420] | < 500
3 | O=C1CC[C@@H](Nc2ccc(C3CCN(CC4CCN(C(=O)[C@H]5CC[C@H](Nc6ncc(F)c(-c7cccc(-c8ccc[nH]c8=O)c7)n6)CC5)CC4)CC3)c(F)c2)C(=O)N1 (single isomer, unassigned) [Compound 421] | < 500
4 | Cn1nc([C@H]2CCC(=O)NC2=O)c2ccc(C3CCN(CC4CCN(C(=O)[C@H]5CC[C@H](Nc6ncc(F)c(-c7cccc(-n8ccccc8=O)c7)n6)CC5)CC4)CC3)cc21 (single isomer, unassigned) [Compound 422] | < 500
5 | O=C1CC[C@H](Nc2ccc(N3CCN(CC4(O)CCN(C(=O)[C@H]5CC[C@H](Nc6ncc(F)c(-c7cccc(-n8ccccc8=O)c7)n6)CC5)CC4)CC3)c(F)c2)C(=O)N1 (single isomer, unassigned) [Compound 423] | < 500
6 | O=C1CC[C@@H](Nc2ccc(N3CCN([C@H]4CC[C@H](NC(=O)[C@H]5CC[C@H](Nc6ncc(F)c(-c7cccc(-c8ccc[nH]c8=O)c7)n6)CC5)CC4)CC3)c(F)c2)C(=O)N1 (single isomer, unassigned) [Compound 432] | < 500
7 | O=C1CC[C@H](Nc2ccc(C3CCN([C@H]4CC[C@H](NC(=O)[C@H]5CC[C@H](Nc6ncc(F)c(-c7cccc(-n8ccccc8=O)c7)n6)CC5)CC4)CC3)c(F)c2)C(=O)N1 (single isomer, unassigned) [Compound 434] | < 500
8 | O=C1CC[C@H](Nc2ccc(N3CCN([C@H]4CC[C@H](NC(=O)[C@H]5CC[C@H](Nc6ncc(F)c(-c7cccc(-n8ccccc8=O)c7)n6)CC5)CC4)CC3)c(F)c2)C(=O)N1 (single isomer, unassigned) [Compound 436] | < 500
9 | O=C1CC[C@H](Nc2ccc(C3CCN(CC4CCN(C(=O)[C@H]5CC[C@H](Nc6ncc(F)c(-c7cccc(-c8ccc[nH]c8=O)c7)n6)CC5)CC4)CC3)c(F)c2)C(=O)N1 (single isomer, unassigned) [Compound 437] | < 500
10 | Cn1nc([C@@H]2CCC(=O)NC2=O)c2ccc(C3CCN(CC4CCN(C(=O)[C@H]5CC[C@H](Nc6ncc(F)c(-c7cccc(-n8ccccc8=O)c7)n6)CC5)CC4)CC3)cc21 (single isomer, unassigned) [Compound 438] | < 500
11 | O=C1CC[C@@H](Nc2ccc(N3CCN(CC4(O)CCN(C(=O)[C@H]5CC[C@H](Nc6ncc(F)c(-c7cccc(-n8ccccc8=O)c7)n6)CC5)CC4)CC3)c(F)c2)C(=O)N1 (single isomer, unassigned) [Compound 439] | < 500
12 | O=C1CC[C@H](Nc2ccc(N3CCN([C@H]4CC[C@H](NC(=O)[C@H]5CC[C@H](Nc6ncc(F)c(-c7cccc(-c8ccc[nH]c8=O)c7)n6)CC5)CC4)CC3)c(F)c2)C(=O)N1 (single isomer, unassigned) [Compound 441] | < 500
13 | O=C1CC[C@@H](Nc2ccc(C3CCN(CC4(O)CCN(C(=O)[C@H]5CC[C@H](Nc6ncc(F)c(-c7cccc(-n8ccccc8=O)c7)n6)CC5)CC4)CC3)c(F)c2)C(=O)N1 (single isomer, unassigned) [Compound 442] | < 500
14 | O=C1CC[C@H](Nc2ccc(C3CCN(CC4(O)CCN(C(=O)[C@H]5CC[C@H](Nc6ncc(F)c(-c7cccc(-n8ccccc8=O)c7)n6)CC5)CC4)CC3)c(F)c2)C(=O)N1 (single isomer, unassigned) [Compound 443] | < 500
15 | O=C1CC[C@@H](Nc2ccc(N3CCN([C@H]4CC[C@H](C(=O)N[C@H]5CC[C@H](Nc6ncc(F)c(-c7cccc(N8CCCCC8=O)c7)n6)CC5)CC4)CC3)c(F)c2)C(=O)N1 (single isomer, unassigned) [Compound 445] | < 500
